Here are results for two compounds from ChEMBL document CHEMBL4265901, “Eupatilin inhibits angiogenesis-mediated human hepatocellular metastasis by reducing MMP-2 and VEGF signaling” (Bioorg Med Chem Lett, 2018).

The subject of data set [1] is HUVEC. In words: Antiangiogenic activity in HUVEC assessed as inhibition of tube formation at 1.6 uM after 24 hrs by light microscopic analysis relative to control. Conditions: Homo sapiens. It counts as functional.
In data set [2] the target is RAC-alpha serine/threonine-protein kinase (Homo sapiens) (UniProt P31749). The data set is described as follows: Inhibition of Akt phosphorylation in HUVEC at 6.25 uM after 24 hrs by Western blot analysis relative to control. It counts as cell-based. (Immunoblotting shows a protein as a band on a membrane.)
Data set [3] concerns HUVEC. The data set is described as follows: Downregulation of VEGF protein level in HUVEC at 3.125 uM after 24 hrs by Western blot analysis relative to control. It counts as functional, Homo sapiens.
The test system of data set [4] is HUVEC. In words: Downregulation of HIF-1 alpha protein level in HUVEC at 6.25 uM after 24 hrs by Western blot analysis relative to control. It counts as functional, Homo sapiens.
Data set [5] has as its system HUVEC. The data set is described as follows: Downregulation of HIF-1 alpha protein level in HUVEC at 3.125 uM after 24 hrs by Western blot analysis relative to control. It counts as functional, Homo sapiens.
Data set [6] concerns HUVEC. The data set is described as follows: Downregulation of VEGF level in HUVEC at 6.25 uM after 24 hrs by Western blot analysis relative to control. It is filed as functional, Homo sapiens.
Data set [7] relates to SNU-182. In words: Downregulation of MMP9 mRNA levels in human SNU182 cells at 20 uM after 24 hrs by quantitative real-time qPCR analysis. It is filed as functional, cell-based. A general note: Real-time PCR tracks product formation cycle by cycle.
Data set [8] concerns HepG2. In words: Antiproliferative activity against human HepG2 cells after 24 hrs by MTT assay. It counts as functional, cell-based. For orientation: Formazan colour is commonly taken as a measure of viable cells.
Data set [9] relates to SNU-182. In words: Downregulation of MMP2 mRNA levels in human SNU182 cells at 20 uM after 24 hrs by quantitative real-time qPCR analysis. It counts as functional, cell-based.
Data set [10] relates to HUVEC. The data set is described as follows: Antiangiogenic activity in HUVEC assessed as inhibition of tube formation at 6.25 uM after 24 hrs by light microscopic analysis relative to control. To be noted: Homo sapiens. It counts as functional.
In data set [11] the test system is HUVEC. The data set is described as follows: Cytotoxicity activity against HUVEC assessed as decrease in cell viability up to 6.25 uM after 24 hrs by MTT assay. It is filed as cell-based. To be noted: human.
The test system of data set [12] is HUVEC. In words: Antiangiogenic activity in HUVEC assessed as inhibition of tube formation at 3.125 uM after 24 hrs by light microscopic analysis relative to control. It is filed as functional. Conditions: Homo sapiens.
The target of data set [13] is RAC-alpha serine/threonine-protein kinase (Homo sapiens) (UniProt P31749). In words: Inhibition of Akt phosphorylation in HUVEC at 3.125 uM after 24 hrs by Western blot analysis relative to control. It counts as cell-based.
The subject of data set [14] is HUVEC. The data set is described as follows: Cytotoxicity activity against HUVEC assessed as decrease in cell viability at 12.5 to 100 uM after 24 hrs by MTT assay. Conditions: human. It is filed as cell-based.
In data set [15] the test system is SNU-182. In words: Cytotoxicity against human SNU182 cells assessed as decrease in cell viability up to 20 uM after 48 hrs by MTT assay. It counts as cell-based. To be noted: snu-182, 48 h.
The subject of data set [16] is HepG2. The data set is described as follows: Antiproliferative activity against human HepG2 cells at 200 uM after 24 hrs by MTT assay. It counts as functional.

Calls of active or inactive are those of the source. The calls are words filed in the database; no cut-off is given here.

Chain of RAC-alpha serine/threonine-protein kinase (Homo sapiens) (P31749 whole entry): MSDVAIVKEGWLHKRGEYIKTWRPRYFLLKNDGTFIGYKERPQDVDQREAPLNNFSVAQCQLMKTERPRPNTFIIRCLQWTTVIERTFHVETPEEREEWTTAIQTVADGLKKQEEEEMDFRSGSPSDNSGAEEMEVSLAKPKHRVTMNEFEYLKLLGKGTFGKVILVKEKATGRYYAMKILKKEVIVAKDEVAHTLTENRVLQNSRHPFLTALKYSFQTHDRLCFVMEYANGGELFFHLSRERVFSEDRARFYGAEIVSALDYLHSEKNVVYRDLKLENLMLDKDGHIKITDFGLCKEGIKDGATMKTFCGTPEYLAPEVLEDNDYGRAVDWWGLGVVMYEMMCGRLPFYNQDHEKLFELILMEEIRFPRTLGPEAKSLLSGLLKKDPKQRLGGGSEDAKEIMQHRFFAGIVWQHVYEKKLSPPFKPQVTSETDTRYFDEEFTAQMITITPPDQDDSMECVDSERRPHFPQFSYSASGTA

By inhibition is commonly meant the share of the control response that was lost under treatment. As to `CC(C)=CC[C@@H](O)C1=CC(=O)c2c(O)ccc(O)c2C1=O` [SHIKONIN], the inhibition at 1.6 µM in the data set with HUVEC [1] is 31.8%.
Regarding `COc1ccc(-c2cc(=O)c3c(O)c(OC)c(O)cc3o2)cc1OC` [EUPATILIN], the fold change (FC) in data set [2] turned out to be 0.8; in the data set on HUVEC [3], 0.88; in the data set with HUVEC [4], 0.84; in the data set with HUVEC [5], 0.83; in data set [13], 0.82. Also, the Activity in the data set with HUVEC [6] is 31%; in the data set on HepG2 [8] it was “Dose-dependent effect”; in the data set on HUVEC [11], “Non-Toxic”; in the data set with HUVEC [14], “Toxic”; in the data set with SNU-182 [15], “Non-Toxic”; in the data set with HepG2 [16] it was 43.24%. Moreover, the outcome in the data set with SNU-182 [7] was inactive. Further, the result in the data set on SNU-182 [9] was Active. Further, in the data set with HUVEC [10], the inhibition at 6.25 µM stood at 24.8%. Moreover, the inhibition at 3.125 µM with HUVEC [12] turned out to be 14.1%.
